The values that follow come from patent US10889620B2, “Solid state forms of linaclotide” (NOVETIDE LTD., priority 2015, dated 2021).

The conditions of data set [1]: storage for 3 months; 40° C. and 75% relative humidity; from U.S. Pat. No. 8,222,201, Example 3, Table 13; cited from earlier work.
The nature of data set [2]: Stability test of solid Linaclotide forms, storage in sealed HDPE bottles at 40° C. and 75% relative humidity, hydrolysis product content. The class given is physicochemical. To be noted: sealed 45 cc. HDPE bottles. Here is the method:
Linaclotide Form III according to the present invention was subjected to a stability test in accordance with U.S. Pat. No. 8,222,201, Example 3 (storage in sealed 45 cc. high density polyethylene bottles at 40° C. and 75% relative humidity).

The nature of data set [3]: Stability of Linaclotide solutions with and without ethanol, % multimers by HPLC-SEC. The note with it: RT, sealed vials. The data set is classed as physicochemical. On the procedure:
Solutions of Linaclotide in: (A): a 1:1 mixture of 0.2% AcOH: ACN or (B): a 1:1:9.5 mixture of 0.2% AcOH:ACN:EtOH, were stored for 12 days at room temperature (RT) in sealed vials. The solutions were analysed by (HPLC-size exclusion chromatography) (HPLC-SEC), for % multimers (the major degradants present) content (see table below):
The results are graphically represented in FIG. 6.

Bridge positions count the residues as written; N and C are the ends. Peptide text beside a SMILES is read from it.

In the case of `C[C@@H]1NC(=O)[C@@H]2CCCN2C(=O)[C@H](CC(N)=O)NC(=O)[C@@H]2CSSC[C@H](N)C(=O)N[C@H]3CSSC[C@H](NC1=O)C(=O)N[C@@H]([C@@H](C)O)C(=O)NCC(=O)N[C@H](C(=O)N[C@@H](Cc1ccc(O)cc1)C(=O)O)CSSC[C@H](NC(=O)[C@H](Cc1ccc(O)cc1)NC(=O)[C@H](CCC(=O)O)NC3=O)C(=O)N2` [Form alpha, Linaclotide] (H-CCEYCCNPACTGCY-OH; disulfide 1-6, 2-10, 5-13), the “hydrolysis product (L-Asp Linaclotide impurity) content” value in data set [1] is on record as 5.7 wt %.

Take `C[C@@H]1NC(=O)[C@@H]2CCCN2C(=O)[C@H](CC(N)=O)NC(=O)[C@@H]2CSSC[C@H](N)C(=O)N[C@H]3CSSC[C@H](NC1=O)C(=O)N[C@@H]([C@@H](C)O)C(=O)NCC(=O)N[C@H](C(=O)N[C@@H](Cc1ccc(O)cc1)C(=O)O)CSSC[C@H](NC(=O)[C@H](Cc1ccc(O)cc1)NC(=O)[C@H](CCC(=O)O)NC3=O)C(=O)N2` [Linaclotide Form III, Linaclotide] (H-CCEYCCNPACTGCY-OH; disulfide 1-6, 2-10, 5-13): the “Linaclotide hydrolysis product (L-Asp Linaclotide impurity) content” value in data set [2] (after 4 weeks) is reported as 0.22%; in data set [2] (extrapolated to 3 months) it was 0.45 wt %.

As to `C[C@@H]1NC(=O)[C@@H]2CCCN2C(=O)[C@H](CC(N)=O)NC(=O)[C@@H]2CSSC[C@H](N)C(=O)N[C@H]3CSSC[C@H](NC1=O)C(=O)N[C@@H]([C@@H](C)O)C(=O)NCC(=O)N[C@H](C(=O)N[C@@H](Cc1ccc(O)cc1)C(=O)O)CSSC[C@H](NC(=O)[C@H](Cc1ccc(O)cc1)NC(=O)[C@H](CCC(=O)O)NC3=O)C(=O)N2` [Linaclotide] (H-CCEYCCNPACTGCY-OH; disulfide 1-6, 2-10, 5-13), the “% Multimers according to HPLC-SEC method” value was found to be 1.72% in data set [3] (solution (A) without EtOH: 1:1 0.2% AcOH:ACN, Day 0); 1.87% in data set [3] (solution (A) without EtOH: 1:1 0.2% AcOH:ACN, Day 1); 1.70% in data set [3] (solution (A) without EtOH: 1:1 0.2% AcOH:ACN, Day 2); 3.05% in data set [3] (solution (A) without EtOH: 1:1 0.2% AcOH:ACN, Day 5); 3.75% in data set [3] (solution (A) without EtOH: 1:1 0.2% AcOH:ACN, Day 6); 3.83% in data set [3] (solution (A) without EtOH: 1:1 0.2% AcOH:ACN, Day 7). Further, the “% Multimers according to HPLC-SEC method” value in data set [3] (solution (A) without EtOH: 1:1 0.2% AcOH:ACN, Day 8) is listed as 4.61%; in data set [3] (solution (A) without EtOH: 1:1 0.2% AcOH:ACN, Day 11), 6.47%; in data set [3] (solution (A) without EtOH: 1:1 0.2% AcOH:ACN, Day 12), 7.18%; in data set [3] (solution (B) with EtOH: 1:1:9.5 0.2% AcOH:ACN:EtOH, Day 0), 1.54%; in data set [3] (solution (B) with EtOH: 1:1:9.5 0.2% AcOH:ACN:EtOH, Day 1) it was 1.66%; in data set [3] (solution (B) with EtOH: 1:1:9.5 0.2% AcOH:ACN:EtOH, Day 2), 2.17%. Besides, the “% Multimers according to HPLC-SEC method” value in data set [3] (solution (B) with EtOH: 1:1:9.5 0.2% AcOH:ACN:EtOH, Day 5) stood at 2.34%; in data set [3] (solution (B) with EtOH: 1:1:9.5 0.2% AcOH:ACN:EtOH, Day 6), 3.22%; in data set [3] (solution (B) with EtOH: 1:1:9.5 0.2% AcOH:ACN:EtOH, Day 7), 3.54%; in data set [3] (solution (B) with EtOH: 1:1:9.5 0.2% AcOH:ACN:EtOH, Day 8), 3.64%; in data set [3] (solution (B) with EtOH: 1:1:9.5 0.2% AcOH:ACN:EtOH, Day 11) it was 3.62%; in data set [3] (solution (B) with EtOH: 1:1:9.5 0.2% AcOH:ACN:EtOH, Day 12), 4.88%.
